Experiments:
U2OS cells [1] = assay: Transwell Boyden chamber migration assay, U2OS cells; assay type: cell-based; conditions: 7.5 μM, serum-free medium with 0.4% BSA, toward 10% FBS, 24 h, FIG. 10A
Experimental: (§1) FIG. 10: Antp-AAC-11-LZ (377-399) peptide inhibits cell migration and invasion. (A) U2OS cells were added to the upper well of modified Boyden chamber (transwell) plates in serum-free medium containing 0.4% BSA with a vehicle or with either 7.5 μM of the Antp-AAC-11-LZ (377-399) peptide or the AAC-11-LZ (377-399) peptide and subjected to a transwell migration assay as described under Materials and methods. The cells were allowed to migrate toward 10% FBS for 24 h. Triplicate wells were used for each of three independent experiments. The results are expressed relative to the migration of the untreated cells (=100%). Column: Mean of three experiments. Bar: s.e. P-value was determined by Student's t-test (*P<0.01). (B) U2OS cells were seeded in a Matrigel-coated Boyden chamber in serum-free medium containing 0.4% BSA with a vehicle or with either 7.5 µM of the Antp-AAC-11-LZ (377-399) peptide or the AAC-11-LZ (377-399) peptide and subjected to a transwell migration assay as described under Materials and methods. The cells were allowed to migrate toward 10% FBS for 48 h. Triplicate wells were used for each of three independent experiments. The results are expressed relative to the migration of the untreated cells (=100%). Column: Mean of three experiments. Bar: s.e. P-value was determined by Student's t-test (*P<0.01) […]

U2OS cells [2] = assay: Matrigel invasion assay, U2OS cells; assay type: cell-based; conditions: 7.5 μM, toward 10% FBS, 48 h, FIG. 10B
Experimental: as §1

[3] = tested on: A549 non-small cell lung cancer xenograft; assay: A549 lung adenocarcinoma subcutaneous xenograft in nude mice; assay type: in vivo; conditions: 5 mg/kg i.p., 7 daily injections
Experimental: A549 cells (1.25×10^6) were injected subcutaneously to six weeks old female nu/nu mice. Following transplantation (n=5-6 per model) tumor growth was assessed by measuring tumor size in two dimension using a Vernier caliper. Tumor volume was calculated using the formula [3.14×long axis×short axis×short axis]/6 (Kjonniksen et al., 1989). Treatment started after randomisation when tumor volumes had reached a size of approximately 100 mm^3 and consisted of intraperitoneal injection of AAC-11-LZ (377-399) or Antp-AAC-11-LZ (377-399) peptides (5 mg/kg) or vehicle (normal saline solution) each day for 7 consecutive days. Mice were weighted and the tumor size was measured by a caliper and recorded daily. Twenty eight days after beginning of the treatment mice were sacrificed. The tumors, kidney, lungs, heart, liver, pancreas and spleen were taken and fixed. Paraffin-embedded sections were prepared and stained with hematoxylin and eosin for histological analysis.

A549 cells = assay: Cell viability (MTT) of A549 cells under low serum / serum deprivation; assay type: cell-based
Experimental: (A) Karpas 1106, SU-DHL-5, SeAx and HUT-78 cells were plated at a densities of 6×10^3 in 96 well plates (100 μL total volume per well) and treated for 24 hours in a 37° C. incubator (5% CO2) with increasing concentrations of the Antp-AAC-11-LZ (363-399). 20 μL MTS reagent was then added to each well and plates were incubated for an additional 4 hours. Absorbance was measured at 490 nm using a 96-well plate reader. The extent to which the Antp-AAC-11-LZ (363-399) peptide inhibited cell proliferation was calculated as a percentage of the absorbance in each well containing the Antp-AAC-11-LZ (363-399) peptide relative to wells containing no peptide (negative control). Each bar represents the mean±s.d. from at least three independent experiments. (B) Indicated cells were plated at a densities of 4.5×10^3 in 96 well plates (100 μL total volume per well) and allowed to attach overnight in a 37° C. incubator (5% CO2). Media was removed from cells and replaced with media containing Antp-AAC-11-LZ (363-399) peptide at various concentrations (100 μL total volume per well) peptide and the plates were incubated for 24 hours. The MTT assay was then completed and data analysis was performed as described herein. […] A549 cells were plated at a densities of 4.5×10^3 in 96 well plates (100 μL total volume per well) and allowed to attach overnight in a 37° C. incubator (5% CO2). Media was removed from cells and replaced with media containing the indicated peptides at 10 μM (100 μL total volume per well) and the plates were incubated for 24 hours. The MTT assay was then completed and data analysis was performed as described herein.
(A) A549 cells were plated at a densities of 4.5×10^3 in 96 well plates (100 μL total volume per well) and allowed to attach overnight in a 37° C. incubator (5% CO2). Media was removed from cells and replaced with media containing the indicated peptides at various concentrations (100 μL total volume per well) peptide in the absence of serum and the plates were incubated for 24 hours. The MTT assay was then completed and data analysis was performed as described herein. (B) A549 or HaCat cells were plated at a densities of 4.5×10^3 in 96 well plates (100 μL total volume per well) and allowed to attach overnight in a 37° C. incubator (5% CO2). Media was removed from cells and replaced with media containing the indicated peptides at 10 μM (100 μL total volume per well) peptide in the absence of serum and the plates were incubated for 24 hours. The MTT assay was then completed and data analysis was performed as described herein.
A549 cells were plated at a densities of 4.5×10^3 in 96 well plates (100 μL total volume per well) and allowed to attach overnight in a 37° C. incubator (5% CO2). Cells were left untreated or pre-treated with 100 μM Z-VAD-FMK for 2 h. […] The MTT assay was then completed and data analysis was performed as described herein.
(A) A549 cells were plated at a densities of 4.5×10^3 in 96 well plates (100 μL total volume per well) and allowed to attach overnight in a 37° C. incubator (5% CO2). Media was removed from cells and replaced with media containing the indicated Antp-AAC-11-LZ peptides at various concentrations (100 μL total volume per well) peptide and the plates were incubated for 24 hours. The MTT assay was then completed and data analysis was performed as described herein. (B) A549 or HaCat cells were plated at a densities of 4.5×10^3 in 96 well plates (100 μL total volume per well) and allowed to attach overnight in a 37° C. incubator (5% CO2). Media was removed from cells and replaced with media containing the indicated peptides at 10 μM (100 μL total volume per well) peptide in the absence of serum and the plates were incubated for 24 hours. The MTT assay was then completed and data analysis was performed as described herein.

[4] = Toxicity of peptide injection in nude mice; conditions: i.p. twice per week for 4 weeks
Experimental: Nude mice were injected intraperitoneally twice a week for 4 weeks with normal saline solution or the indicated doses of Antp-AAC-11-LZ (363-399) peptide (n=3-4 mice per group) and were monitored daily for body weight (mean±s.e.m).
Nude mice were injected intraperitoneally twice a week for 4 weeks with normal saline solution or the indicated doses of Antp-AAC-11-LZ (377-399) peptide (n=3-4 mice per group) and were monitored daily for body weight (mean±s.e.m).
We first evaluated the toxicity of the Antp-AAC-11-LZ (363-399) peptide in nude mice that were injected intraperitoneally twice per week for 4 weeks with the Antp-AAC-11-LZ (363-399) peptide or normal saline solution (dose range: 0.8-4.8 mg peptide/kg body weight; n=3-4 mice per group).
We first evaluated the toxicity of the Antp-AAC-11-LZ (377-399) peptide in nude mice that were injected intraperitoneally twice per week for 4 weeks with the Antp-AAC-11-LZ (377-399) peptide or normal saline solution (dose range: 1-6 mg peptide/kg body weight; n=3-4 mice per group).

Substance: AAC-11-LZ (377-399): LQYFARGLQVYIRQLRLALQGKT (SEQ ID NO: 16) (Synthetic AAC-11-LZ (377-399))
- cell migration (U2OS cells [1]): didn't show any effect
- cell invasion (U2OS cells [2]): didn't show any effect
- final mean tumor volume relative to control-treated mice ([3]; p=0.01): less than 25%

Substance: Ac-RQIKIWFKKQNRRMKWKKLQYFARGLQVYIRQLRLALQGKT-NH2 [Antp-AAC-11-LZ (377-399)]
- cellular viability (A549 cells; 2 µM): 5 % of control
- cytotoxicity (decrease of A549 viability) relative to comparison peptide, dose-response (A549 cells; various concentrations, low-serum conditions, 24 hours, FIG. 2A / 5A): markedly increased cytotoxicity potency compared to the parent peptide
- cell migration (U2OS cells [1]): substantially decreased
- cell invasion (U2OS cells [2]): prevented invasion
- tumor size versus AAC-11-LZ (377-399) peptide or vehicle ([3]; FIG. 11B): significantly smaller tumors
- mortality ([4]; 1-6 mg peptide/kg body weight): No mice died
- body weight difference between groups ([4]; 1-6 mg peptide/kg body weight, FIG. 11A): no significant difference
- toxicity to kidney, lungs, heart, liver, pancreas and spleen ([4]; 1-6 mg peptide/kg, end of experiment): no obvious toxicity
